Laboratory results as given in the supplement of paper PMC10307832.

How the values were obtained:
Experiment in all cases: relative viability (nuclei count vs DMSO), 5 days (fraction); higher = more cells survive
CAL-12T = tested on: CAL-12T
Method in brief: (§1)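 Relative viability equals treated-well nuclei counts divided by vehicle-well nuclei counts. Counts came from 4× images of lung cancer cell lines grown in 1536-well plates for 5 days after pin-tool dosing on the day after seeding. Dosing used one drug alone or a fixed anchor-drug dose plus five library-drug doses (not always all listed) in √10 steps, and values are medians of duplicate plates.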

NCI-H441 = tested on: NCI-H441
Method in brief: as §1

HCC-15 = tested on: HCC-15
Method in brief: as §1

NCI-H1651 = tested on: NCI-H1651
Method in brief: as §1

NCI-H2085 = tested on: NCI-H2085
Method in brief: as §1

EKVX = tested on: EKVX
Method in brief: as §1

HCC-366 = tested on: HCC-366
Method in brief: as §1

NCI-H460 = tested on: NCI-H460
Method in brief: as §1

NCI-H2023 = tested on: NCI-H2023
Method in brief: as §1

LOU-NH91 = tested on: LOU-NH91
Method in brief: as §1

NCI-H1734 = tested on: NCI-H1734
Method in brief: as §1

NCI-H838 = tested on: NCI-H838
Method in brief: as §1

LCLC-103H = tested on: LCLC-103H
Method in brief: as §1

NCI-H1355 = tested on: NCI-H1355
Method in brief: as §1

NCI-H1975 = tested on: NCI-H1975
Method in brief: as §1

BEN = tested on: BEN
Method in brief: as §1

NCI-H1437 = tested on: NCI-H1437
Method in brief: as §1

NCI-H1563 = tested on: NCI-H1563
Method in brief: as §1

NCI-H358 = tested on: NCI-H358
Method in brief: as §1

NCI-H1650 = tested on: NCI-H1650
Method in brief: as §1

HCC-44 = tested on: HCC-44
Method in brief: as §1

NCI-H1755 = tested on: NCI-H1755
Method in brief: as §1

Clc1ccc(Nc2nnc(Cc3ccncc3)c3ccccc23)cc1 [Vatalanib] + C[C@@H](Oc1cc(-c2cnn(C3CCNCC3)c2)cnc1N)c1c(Cl)ccc(F)c1Cl [Crizotinib] (partner 1 µM)
relative viability (CAL-12T; first compound 0.04 µM): 0.651
relative viability (CAL-12T; first compound 0.1265 µM): 0.523
relative viability (CAL-12T; first compound 0.4 µM): 0.686
relative viability (CAL-12T; first compound 1.265 µM): 0.446
relative viability (CAL-12T; first compound 4 µM): 0.746
relative viability (NCI-H441; first compound 0.04 µM): 0.851
relative viability (NCI-H441; first compound 0.1265 µM): 0.605
relative viability (NCI-H441; first compound 0.4 µM): 0.72
relative viability (NCI-H441; first compound 1.265 µM): 0.835
relative viability (NCI-H441; first compound 4 µM): 0.831
relative viability (HCC-15; first compound 0.04 µM): 0.9
relative viability (HCC-15; first compound 0.1265 µM): 0.768
relative viability (HCC-15; first compound 0.4 µM): 0.79
relative viability (HCC-15; first compound 1.265 µM): 0.812
relative viability (HCC-15; first compound 4 µM): 0.841
relative viability (NCI-H1651; first compound 0.04 µM): 0.865
relative viability (NCI-H1651; first compound 0.1265 µM): 0.839
relative viability (NCI-H1651; first compound 0.4 µM): 0.858
relative viability (NCI-H1651; first compound 1.265 µM): 0.86
relative viability (NCI-H1651; first compound 4 µM): 0.925
relative viability (NCI-H2085; first compound 0.04 µM): 0.754
relative viability (NCI-H2085; first compound 0.1265 µM): 0.779
relative viability (NCI-H2085; first compound 0.4 µM): 1.04
relative viability (NCI-H2085; first compound 1.265 µM): 0.787
relative viability (NCI-H2085; first compound 4 µM): 0.888
relative viability (EKVX; first compound 0.04 µM): 0.993
relative viability (EKVX; first compound 0.1265 µM): 0.9
relative viability (EKVX; first compound 0.4 µM): 1.11
relative viability (EKVX; first compound 1.265 µM): 1.02
relative viability (EKVX; first compound 4 µM): 0.921
relative viability (HCC-366; first compound 0.04 µM): 0.545
relative viability (HCC-366; first compound 0.1265 µM): 0.383
relative viability (HCC-366; first compound 0.4 µM): 0.592
relative viability (HCC-366; first compound 1.265 µM): 0.487
relative viability (HCC-366; first compound 4 µM): 0.35
relative viability (NCI-H460; first compound 0.04 µM): 0.878
relative viability (NCI-H460; first compound 0.1265 µM): 0.827
relative viability (NCI-H460; first compound 0.4 µM): 1.21
relative viability (NCI-H460; first compound 1.265 µM): 0.748
relative viability (NCI-H460; first compound 4 µM): 0.856
relative viability (NCI-H2023; first compound 0.04 µM): 0.571
relative viability (NCI-H2023; first compound 0.1265 µM): 0.667
relative viability (NCI-H2023; first compound 0.4 µM): 0.698
relative viability (NCI-H2023; first compound 1.265 µM): 0.605
relative viability (NCI-H2023; first compound 4 µM): 0.559
relative viability (LOU-NH91; first compound 0.04 µM): 0.728
relative viability (LOU-NH91; first compound 0.1265 µM): 0.708
relative viability (LOU-NH91; first compound 0.4 µM): 0.674
relative viability (LOU-NH91; first compound 1.265 µM): 0.718
relative viability (LOU-NH91; first compound 4 µM): 0.726
relative viability (NCI-H1734; first compound 0.04 µM): 0.714
relative viability (NCI-H1734; first compound 0.1265 µM): 0.645
relative viability (NCI-H1734; first compound 0.4 µM): 0.796
relative viability (NCI-H1734; first compound 1.265 µM): 0.694
relative viability (NCI-H1734; first compound 4 µM): 0.57
relative viability (NCI-H838; first compound 0.04 µM): 0.837
relative viability (NCI-H838; first compound 0.1265 µM): 0.867
relative viability (NCI-H838; first compound 0.4 µM): 1.01
relative viability (NCI-H838; first compound 1.265 µM): 0.73
relative viability (NCI-H838; first compound 4 µM): 0.79
relative viability (LCLC-103H; first compound 0.04 µM): 1.04
relative viability (LCLC-103H; first compound 0.1265 µM): 1.04
relative viability (LCLC-103H; first compound 0.4 µM): 1.15
relative viability (LCLC-103H; first compound 1.265 µM): 0.999
relative viability (LCLC-103H; first compound 4 µM): 1.11
relative viability (NCI-H1355; first compound 0.04 µM): 1.05
relative viability (NCI-H1355; first compound 0.1265 µM): 1.08
relative viability (NCI-H1355; first compound 0.4 µM): 1.13
relative viability (NCI-H1355; first compound 1.265 µM): 0.886
relative viability (NCI-H1355; first compound 4 µM): 0.953
relative viability (NCI-H1975; first compound 0.04 µM): 0.946
relative viability (NCI-H1975; first compound 0.1265 µM): 0.856
relative viability (NCI-H1975; first compound 0.4 µM): 0.959
relative viability (NCI-H1975; first compound 1.265 µM): 0.845
relative viability (NCI-H1975; first compound 4 µM): 0.821
relative viability (BEN; first compound 0.04 µM): 1.03
relative viability (BEN; first compound 0.1265 µM): 0.764
relative viability (BEN; first compound 0.4 µM): 1.01
relative viability (BEN; first compound 1.265 µM): 0.858
relative viability (BEN; first compound 4 µM): 1.01
relative viability (NCI-H1437; first compound 0.04 µM): 0.978
relative viability (NCI-H1437; first compound 0.1265 µM): 0.934
relative viability (NCI-H1437; first compound 0.4 µM): 1.02
relative viability (NCI-H1437; first compound 1.265 µM): 0.886
relative viability (NCI-H1437; first compound 4 µM): 0.958
relative viability (NCI-H1563; first compound 0.04 µM): 0.848
relative viability (NCI-H1563; first compound 0.1265 µM): 0.754
relative viability (NCI-H1563; first compound 0.4 µM): 0.961
relative viability (NCI-H1563; first compound 1.265 µM): 0.818
relative viability (NCI-H1563; first compound 4 µM): 0.859
relative viability (NCI-H358; first compound 0.04 µM): 0.641
relative viability (NCI-H358; first compound 0.1265 µM): 0.522
relative viability (NCI-H358; first compound 0.4 µM): 0.8
relative viability (NCI-H358; first compound 1.265 µM): 0.585
relative viability (NCI-H358; first compound 4 µM): 0.602
relative viability (NCI-H1650; first compound 0.04 µM): 0.933
relative viability (NCI-H1650; first compound 0.1265 µM): 0.997
relative viability (NCI-H1650; first compound 0.4 µM): 1.06
relative viability (NCI-H1650; first compound 1.265 µM): 0.92
relative viability (NCI-H1650; first compound 4 µM): 1.05
relative viability (HCC-44; first compound 0.04 µM): 0.836
relative viability (HCC-44; first compound 0.1265 µM): 0.842
relative viability (HCC-44; first compound 0.4 µM): 0.804
relative viability (HCC-44; first compound 1.265 µM): 0.735
relative viability (HCC-44; first compound 4 µM): 0.701
relative viability (NCI-H1755; first compound 0.04 µM): 0.886
relative viability (NCI-H1755; first compound 0.1265 µM): 0.821
relative viability (NCI-H1755; first compound 0.4 µM): 0.942
relative viability (NCI-H1755; first compound 1.265 µM): 0.802
relative viability (NCI-H1755; first compound 4 µM): 0.773
